From patent US6670366B1, “Pyrazolopyrimidinone cGMP PDE5 inhibitors for the treatment of sexual dysfunction” (Pfizer Inc, priority 1998, dated 2003)

molecular target: cGMP PDE5 (UniProt O76074); experiment: In vitro PDE inhibitory activity against cGMP PDE5; type: biochemical, human or rabbit; conditions: concentration of compound required for 50% inhibition of enzyme activity, read-out: IC50 as inhibitors of cGMP PDE5
Method: In vitro PDE inhibitory activities against cyclic guanosine 3′,5′-monophosphate (cGMP) and cyclic adenosine 3′,5′-monophosphate (cAMP) phosphodiesterases were determined by measurement of their IC50 values (the concentration of compound required for 50% inhibition of enzyme activity).
The required PDE enzymes were isolated from a variety of sources, including human corpus cavernosum, human and rabbit platelets, human cardiac ventricle, human skeletal muscle and bovine retina, essentially by the method of W. J. Thompson and M. M. Appleman (Biochem., 1971, 10, 311). In particular, the cGMP-specific PDE (PDE5) and the cGMP-inhibited cAMP PDE (PDE3) were obtained from human corpus cavernosum tissue, human platelets or rabbit platelets; the cGMP-stimulated PDE (PDE2) was obtained from human corpus cavernosum; the calcium/calmodulin (Ca/CAM)-dependent PDE (PDE1) from human cardiac ventricle; the cAMP-specific PDE (PDE4) from human skeletal muscle; and the photoreceptor PDE (PDE6) from bovine retina.
Assays were performed using modification of the “batch” method of W. J. Thompson et al. (Biochem., 1979, 18, 5228).

| IC50 | SMILES |
| --- | --- |
| 26.6 nM | CCOc1ccc(S(=O)(=O)N2CCC(CC)CC2)cc1-c1nc2c(CC)n(Cc3ccccn3)nc2c(=O)[nH]1 [Example 4] |
| 14 nM | CCCOc1ccc(S(=O)(=O)NC2CCN(C(=O)OCC)CC2)cc1-c1nc2c(CCC)n(Cc3ccccn3)nc2c(=O)[nH]1 [Example 10] |
| 9.7 nM | CCCc1c2nc(-c3cc(S(=O)(=O)N(C)C)cnc3OCC)[nH]c(=O)c2nn1Cc1ccccn1 [Example 19, 5-[5-(N,N-Dimethylaminosulfonyl)-2-ethoxypyridin-3-yl]-3-n-propyl-2-(pyridin-2-yl)methyl-2,6dihydro-7H-pyrazolo[4,3-d]pyrimidin-7-one] |
| 8.5 nM | CCCOc1ncc(S(=O)(=O)NCCN(C)C)cc1-c1nc2c(CCC)n(Cc3ccccn3)nc2c(=O)[nH]1 [Example 20, 5-(5-[(3-N,N-Dimethylamino)-1-ethylaminosulfonyl]-2-n-propoxypyridin-3-yl)-3-n-propyl-2-(pyridin-2-yl)methyl-2,6-dihydro-7H-pyrazolo[4,3-d]pyrimidin-7-one] |
| 16.4 nM | CCCOc1ccc(S(=O)(=O)N2CC(O)C2)cc1-c1nc2c(CCC)n(Cc3ccccn3)nc2c(=O)[nH]1 [Example 8] |
| 10.3 nM | CCc1c2nc(-c3cc(S(=O)(=O)N4CCC(CC)CC4)cnc3OCCOC)[nH]c(=O)c2nn1Cc1ccccn1 [Example 22] |
